One experiment concerns the target T1, CFTR ΔF508 mutant (Homo sapiens, UniProt P13569, DEL508-508).
T1 construct: expressed in transfected cells; host or cells: CFBE41o- (adenoviral transduction)
Briefly: YFP-halide influx assay for the CFTR-ΔF508 mutation (384 well, CFBE41o- cells, FDSS/μCell). The format is cell-based. As to conditions: forskolin 10.67 μM, fluorescence after 36 seconds, read-out: EC50 measured by YFP-halide influx assay for the CFTR-ΔF508. The source says: 6.2. YFP-Halide Influx Assay for the CFTR-ΔF508 Mutation
The YFP halide influx assay measures the functionality of the cystic fibrosis Transmembrane Conductance regulator (CFTR) channels in the cystic fibrosis bronchial epithelium cell line CFBE41o-. The assay is used to evaluate the capacity of compounds to increase the open probability of existing CFTR channels in the membrane. It makes use of the observation that the yellow fluorescent protein (YFP) variant YFP H148Q, I152L has its fluorescence substantially quenched by halide ions like Cl— and I— (Galietta et al., 2001; Nagai et al., 2002).
For this purpose, CFBE410-cells are seeded in 384 well plates (3000 CFBE cells/well). One day after seeding, the CFBE cells are transduced with adenoviral vectors that direct the expression of the CFTR ΔF508 mutant and of the YFP reporter. Cells are incubated at 27° C., 5% CO2 for 24 hours so as to allow for the proper folding and migration to the membrane of the CFTR channel or treated with a CFTR modulator during 24 h at 37° C.
The I— induced quenching of fluorescence is recorded […] immediately after injection of I— for 2 min on an FDSS/μCell (Hamamatsu). The capacity of a compound to increase the channel opening is directly correlated with the decrease in fluorescence, and is expressed as (1−(fluorescence after 36 seconds (F)/fluorescence before injection (F0))) and an EC50 can be derived from a (1−F/F0) vs compound concentration plot.

In the next experiment the target is T2, CFTR G551D mutant (Homo sapiens, UniProt P13569, G551D).
T2 construct: expressed in transfected cells; host or cells: HEK293 (reverse transfection with plasmids)
Description: YFP-halide influx assay for the CFTR-G551D mutation (HEK293 cells). The format is cell-based. To be noted: HEK293 cells expressing CFTR G551D and YFP reporter; forskolin 10.67 μM; read-out: EC50 measured by YFP-halide influx assay for the CFTR-G551D. The text has this: 6.3. YFP-Halide Influx Assay for the CFTR-G551D Mutation
The YFP halide influx assay measures the functionality of the cystic fibrosis Transmembrane Conductance regulator (CFTR) channels. The assay is used to evaluate the capacity of compounds to increase the channel opening of existing mutant CFTR channels in the membrane. It makes use of the observation that the yellow fluorescent protein (YFP) variant YFP H148Q, I152L, F47L has its fluorescence substantially quenched by halide ions like Cl^− and I^−. (Galietta et al., 2001)
For this purpose, HEK293-cells are seeded in 96 well plates. During seeding, the cells are reverse-transfected with plasmid vectors that direct the expression of the CFTR G551D mutant and of the YFP reporter. Cells are incubated at 37° C., 5% CO2 for 24 hours so as to allow for sufficient expression of the CFTR protein.
The I^−-induced quenching of fluorescence is recorded immediately after injection of I^− for 7 seconds. The capacity of a compound to increase the channel opening is directly correlated with the decrease in fluorescence, and is expressed as (1−(fluorescence after 7 seconds (F)/fluorescence before injection (F0))) and an EC50 can be derived from a (1−F/F0) vs compound concentration plot.

T1 sequence (P13569 with tags, fused parts or gaps DEL508-508): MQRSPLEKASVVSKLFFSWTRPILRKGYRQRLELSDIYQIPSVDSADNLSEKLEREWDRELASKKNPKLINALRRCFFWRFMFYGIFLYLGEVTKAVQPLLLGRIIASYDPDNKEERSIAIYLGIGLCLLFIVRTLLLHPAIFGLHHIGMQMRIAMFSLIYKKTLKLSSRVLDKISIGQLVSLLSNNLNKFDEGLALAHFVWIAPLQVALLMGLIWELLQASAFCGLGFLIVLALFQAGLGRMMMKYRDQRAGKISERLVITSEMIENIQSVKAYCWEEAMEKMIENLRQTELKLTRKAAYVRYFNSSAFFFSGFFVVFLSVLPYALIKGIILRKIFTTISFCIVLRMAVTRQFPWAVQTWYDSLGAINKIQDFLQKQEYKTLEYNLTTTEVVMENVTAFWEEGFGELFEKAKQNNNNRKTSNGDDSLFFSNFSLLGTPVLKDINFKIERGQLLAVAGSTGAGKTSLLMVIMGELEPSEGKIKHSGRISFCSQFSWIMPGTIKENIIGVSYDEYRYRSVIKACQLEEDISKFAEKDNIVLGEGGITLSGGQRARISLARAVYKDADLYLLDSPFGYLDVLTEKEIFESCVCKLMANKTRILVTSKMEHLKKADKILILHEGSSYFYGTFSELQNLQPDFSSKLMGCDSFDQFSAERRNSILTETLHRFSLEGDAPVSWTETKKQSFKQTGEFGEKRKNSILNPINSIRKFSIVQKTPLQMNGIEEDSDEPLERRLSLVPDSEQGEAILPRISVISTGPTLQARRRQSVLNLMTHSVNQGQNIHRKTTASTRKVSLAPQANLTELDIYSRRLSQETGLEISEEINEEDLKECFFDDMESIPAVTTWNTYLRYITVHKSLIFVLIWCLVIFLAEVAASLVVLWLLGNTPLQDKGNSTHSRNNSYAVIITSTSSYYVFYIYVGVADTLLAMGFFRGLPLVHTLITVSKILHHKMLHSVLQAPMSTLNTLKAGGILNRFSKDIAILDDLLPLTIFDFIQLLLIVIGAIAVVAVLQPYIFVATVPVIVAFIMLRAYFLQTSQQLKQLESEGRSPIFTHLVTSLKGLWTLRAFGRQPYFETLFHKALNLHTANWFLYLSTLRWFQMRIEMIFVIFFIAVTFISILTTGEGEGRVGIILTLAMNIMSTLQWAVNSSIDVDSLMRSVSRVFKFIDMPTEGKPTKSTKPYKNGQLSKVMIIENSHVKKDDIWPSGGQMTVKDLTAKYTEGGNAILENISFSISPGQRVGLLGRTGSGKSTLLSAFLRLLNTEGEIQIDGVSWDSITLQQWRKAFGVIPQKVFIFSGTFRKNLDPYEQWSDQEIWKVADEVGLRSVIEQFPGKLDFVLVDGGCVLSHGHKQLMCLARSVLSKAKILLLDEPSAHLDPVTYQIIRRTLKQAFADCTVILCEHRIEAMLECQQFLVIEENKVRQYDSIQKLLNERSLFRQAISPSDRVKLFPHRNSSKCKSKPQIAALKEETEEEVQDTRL
T2 sequence (P13569 whole entry G551D): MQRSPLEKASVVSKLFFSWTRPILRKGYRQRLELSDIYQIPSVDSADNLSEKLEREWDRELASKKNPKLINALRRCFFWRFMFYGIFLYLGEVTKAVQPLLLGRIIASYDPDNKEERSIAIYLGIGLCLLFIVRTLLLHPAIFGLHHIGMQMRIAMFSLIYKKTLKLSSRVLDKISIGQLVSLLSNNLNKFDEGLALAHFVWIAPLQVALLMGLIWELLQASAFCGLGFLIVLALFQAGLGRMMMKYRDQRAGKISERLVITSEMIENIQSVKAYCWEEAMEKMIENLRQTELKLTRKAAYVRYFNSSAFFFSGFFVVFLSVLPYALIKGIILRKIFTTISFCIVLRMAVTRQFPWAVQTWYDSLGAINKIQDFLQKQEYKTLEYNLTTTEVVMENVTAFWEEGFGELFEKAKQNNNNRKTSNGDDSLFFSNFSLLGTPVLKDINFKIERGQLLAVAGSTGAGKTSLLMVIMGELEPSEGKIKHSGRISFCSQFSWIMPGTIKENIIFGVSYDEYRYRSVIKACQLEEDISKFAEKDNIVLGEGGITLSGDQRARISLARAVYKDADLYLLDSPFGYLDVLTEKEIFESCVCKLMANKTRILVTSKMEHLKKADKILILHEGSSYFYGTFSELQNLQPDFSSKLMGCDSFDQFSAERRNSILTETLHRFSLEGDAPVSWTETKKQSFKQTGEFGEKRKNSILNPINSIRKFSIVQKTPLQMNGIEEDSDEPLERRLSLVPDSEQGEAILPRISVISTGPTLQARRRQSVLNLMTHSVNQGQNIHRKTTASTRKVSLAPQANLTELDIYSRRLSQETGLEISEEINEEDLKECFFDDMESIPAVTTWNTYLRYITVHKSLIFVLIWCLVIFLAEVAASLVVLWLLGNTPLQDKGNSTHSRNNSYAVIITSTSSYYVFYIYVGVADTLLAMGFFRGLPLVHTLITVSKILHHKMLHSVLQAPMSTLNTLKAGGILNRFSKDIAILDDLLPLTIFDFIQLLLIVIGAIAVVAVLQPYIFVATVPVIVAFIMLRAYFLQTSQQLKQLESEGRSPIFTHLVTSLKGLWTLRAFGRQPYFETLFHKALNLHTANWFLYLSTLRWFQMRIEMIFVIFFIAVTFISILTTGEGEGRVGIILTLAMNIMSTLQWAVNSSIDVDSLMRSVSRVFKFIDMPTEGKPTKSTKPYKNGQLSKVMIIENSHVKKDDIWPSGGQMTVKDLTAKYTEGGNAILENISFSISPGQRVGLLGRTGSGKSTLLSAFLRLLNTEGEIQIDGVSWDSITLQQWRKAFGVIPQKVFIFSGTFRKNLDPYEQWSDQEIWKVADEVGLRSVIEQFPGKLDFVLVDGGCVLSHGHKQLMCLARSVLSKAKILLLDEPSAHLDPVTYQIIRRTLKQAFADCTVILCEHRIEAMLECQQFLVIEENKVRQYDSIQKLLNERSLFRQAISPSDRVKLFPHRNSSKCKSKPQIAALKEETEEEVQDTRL

One may read the EC50 as the concentration at which the effect is half-maximal. Turning to `CC(CO)C(=O)Nc1sc2c(c1C(N)=O)CC(C)(C)OC2(C)C` (stereo not drawn) [Compound 70, 2-[(3-hydroxy-2-methyl-propanoyl)amino]-5,5,7,7-tetramethyl-4H-thieno[2,3-c]pyran-3-carboxamide], the EC50 at CFTR ΔF508 mutant was determined as 176 nM; at CFTR G551D mutant, 3330 nM.
In the case of `CC1(C)Cc2c(sc(NC(=O)c3n[nH]cc3C#N)c2C(N)=O)C(C)(C)O1` [Compound 73, N-(3-carbamoyl-5,5,7,7-tetramethyl-4H-thieno[2,3-c]pyran-2-yl)-4-cyano-1H-pyrazole-3-carboxamide], the EC50 on CFTR ΔF508 mutant was found to be 20.8 nM; on CFTR G551D mutant, 570 nM.
The matching figures for `CC(C)C(CO)C(=O)Nc1sc2c(c1C(N)=O)CC(C)(C)OC2(C)C` (stereo not drawn) [Compound 74, 2-[[2-(hydroxymethyl)-3-methyl-butanoyl]amino]-5,5,7,7-tetramethyl-4H-thieno[2,3-c]pyran-3-carboxamide]: 82.6 nM and 3330 nM.
As to `CC(O)C1(C(=O)Nc2sc3c(c2C(N)=O)CC(C)(C)OC3(C)C)CC1` (stereo not drawn) [Compound 78, 2-[[1-[1-hydroxyethyl]cyclopropanecarbonyl]amino]-5,5,7,7-tetramethyl-4H-thieno[2,3-c]pyran-3-carboxamide], the 50% effective concentration (EC50) at CFTR ΔF508 mutant turned out to be 6.39 nM; at CFTR G551D mutant it was 3350 nM.
As for `CC(O)C1(C(=O)Nc2sc3c(c2C(N)=O)CC(C)(C)OC3(C)C)CC1` (stereo not drawn) [Compound 79, 2-[[1-[1-hydroxyethyl]cyclopropanecarbonyl]amino]-5,5,7,7-tetramethyl-4H-thieno[2,3-c]pyran-3-carboxamide], the figures for the EC50 at CFTR ΔF508 mutant and at CFTR G551D mutant were 23.6 nM and 3330 nM, respectively.
As for `CC1(C)Cc2c(sc(NC(=O)C(C)(O)C(C)(C)C)c2C(N)=O)C(C)(C)O1` (stereo not drawn) [Compound 81, 2-[(2-hydroxy-2,3,3-trimethyl-butanoyl)amino]-5,5,7,7-tetramethyl-4H-thieno[2,3-c]pyran-3-carboxamide], the EC50 at CFTR ΔF508 mutant is 3.23 nM; at CFTR G551D mutant it was 6660 nM.
The matching figures for `CC1(C)Cc2c(sc(NC(=O)C(CO)CC3CC3)c2C(N)=O)C(C)(C)O1` (stereo not drawn) [Compound 84, 2-[[2-(cyclopropylmethyl)-3-hydroxy-propanoyl]amino]-5,5,7,7-tetramethyl-4H-thieno[2,3-c]pyran-3-carboxamide]: 25.4 nM and 3330 nM.
As for `CC1(C)Cc2c(sc(NC(=O)C(CO)C(C)(C)C)c2C(N)=O)C(C)(C)O1` (stereo not drawn) [Compound 85, 2-[[2-(hydroxymethyl)-3,3-dimethyl-butanoyl]amino]-5,5,7,7-tetramethyl-4H-thieno[2,3-c]pyran-3-carboxamide], the EC50 on CFTR ΔF508 mutant came out at 93.5 nM; on CFTR G551D mutant, 3330 nM.
On to `CC1(C)Cc2c(sc(NC(=O)c3n[nH]cc3CO)c2C(N)=O)C(C)(C)O1` [Compound 88, N-(3-carbamoyl-5,5,7,7-tetramethyl-4H-thieno[2,3-c]pyran-2-yl)-4-(hydroxymethyl)-1H-pyrazole-3-carboxamide], for which the EC50 at CFTR ΔF508 mutant was found to be 145 nM; on CFTR G551D mutant it was 1170 nM.
Regarding `CC1(C)Cc2c(sc(NC(=O)C(CO)C(C)(C)C)c2C(N)=O)C(C)(C)O1` (stereo not drawn) [Compound 90, 2-[[2-(hydroxymethyl)-3,3-dimethyl-butanoyl]amino]-5,5,7,7-tetramethyl-4H-thieno[2,3-c]pyran-3-carboxamide], the EC50 at CFTR ΔF508 mutant stood at 120 nM; at CFTR G551D mutant, 3200 nM.
As for `CC1(C)Cc2c(sc(NC(=O)c3ccn(COP(=O)(O)O)n3)c2C(N)=O)C(C)(C)O1` [Compound 93, [3-[(3-carbamoyl-5,5,7,7-tetramethyl-4H-thieno[2,3-c]pyran-2-yl)carbamoyl]pyrazol-1-yl]methyl dihydrogen phosphate], the EC50 was 479 nM at CFTR ΔF508 mutant and 3330 nM on CFTR G551D mutant.
Consider `CC1(C)Cc2c(sc(NC(=O)[C@]3(CO)CC3(C)C)c2C(N)=O)C(C)(C)O1` [Compound 99, 2-[[(1R)-1-(hydroxymethyl)-2,2-dimethyl-cyclopropanecarbonyl]amino]-5,5,7,7-tetramethyl-4H-thieno[2,3-c]pyran-3-carboxamide], for which the EC50 on CFTR ΔF508 mutant worked out at 28.3 nM; at CFTR G551D mutant, 1340 nM.
For the molecule `COCCOc1c[nH]nc1C(=O)Nc1sc2c(c1C(N)=O)CC(C)(C)OC2(C)C` [Compound 100, N-(3-carbamoyl-5,5,7,7-tetramethyl-4H-thieno[2,3-c]pyran-2-yl)-4-(2-methoxyethoxy)-1H-pyrazole-3-carboxamide], the concentration giving a half-maximal response (EC50) was 190 nM on CFTR ΔF508 mutant and 2860 nM at CFTR G551D mutant.
Take `CC1(C)Cc2c(sc(NC(=O)c3ccccc3OC(F)F)c2C(N)=O)C(C)(C)O1` [Compound 113, 2-[[2-(difluoromethoxy)benzoyl]amino]-5,5,7,7-tetramethyl-4H-thieno[2,3-c]pyran-3-carboxamide]: the EC50 at CFTR ΔF508 mutant was found to be 77.5 nM; on CFTR G551D mutant it was 2790 nM.
With `CC1(C)Cc2c(sc(NC(=O)c3ccn(C(F)F)n3)c2C(N)=O)C(C)(C)O1` [Compound 114, N-(3-carbamoyl-5,5,7,7-tetramethyl-4H-thieno[2,3-c]pyran-2-yl)-1-(difluoromethyl)pyrazole-3-carboxamide], the EC50 came to 40.9 nM on CFTR ΔF508 mutant and 1710 nM at CFTR G551D mutant.
The corresponding values for `CC1(C)Cc2c(sc(NC(=O)c3ccnn3C(F)F)c2C(N)=O)C(C)(C)O1` [Compound 115, N-(3-carbamoyl-5,5,7,7-tetramethyl-4H-thieno[2,3-c]pyran-2-yl)-2-(difluoromethyl)pyrazole-3-carboxamide] are 62.1 nM and 586 nM.
Consider `CC1(C)Cc2c(sc(NC(=O)c3nn(C(F)F)cc3Cl)c2C(N)=O)C(C)(C)O1` [Compound 116, N-(3-carbamoyl-5,5,7,7-tetramethyl-4H-thieno[2,3-c]pyran-2-yl)-4-chloro-1-(difluoromethyl)pyrazole-3-carboxamide], for which the figures for the EC50 on CFTR ΔF508 mutant and on CFTR G551D mutant were 88 nM and 1520 nM, respectively.
On to `Cn1cc(C(=O)Nc2sc3c(c2C(N)=O)CC(C)(C)OC3(C)C)c(C(F)F)n1` [Compound 117, N-(3-carbamoyl-5,5,7,7-tetramethyl-4H-thieno[2,3-c]pyran-2-yl)-3-(difluoromethyl)-1-methyl-pyrazole-4-carboxamide], for which the EC50 came out at 239 nM on CFTR ΔF508 mutant and 6660 nM on CFTR G551D mutant.
The matching figures for `Cn1ccc(C(=O)Nc2sc3c(c2C(N)=O)CC(C)(C)OC3(C)C)n1` [Compound 119, N-(3-carbamoyl-5,5,7,7-tetramethyl-4H-thieno[2,3-c]pyran-2-yl)-1-methyl-pyrazole-3-carboxamide]: 159 nM and 2170 nM.
`Cn1nccc1C(=O)Nc1sc2c(c1C(N)=O)CC(C)(C)OC2(C)C` [Compound 120, N-(3-carbamoyl-5,5,7,7-tetramethyl-4H-thieno[2,3-c]pyran-2-yl)-2-methyl-pyrazole-3-carboxamide]: the EC50 at CFTR ΔF508 mutant came to 121 nM; on CFTR G551D mutant, 2410 nM.
In the case of `CC1(C)Cc2c(sc(NC(=O)c3cccc(C(F)F)c3)c2C(N)=O)C(C)(C)O1` [Compound 122, 2-[[3-(difluoromethyl)benzoyl]amino]-5,5,7,7-tetramethyl-4H-thieno[2,3-c]pyran-3-carboxamide], the EC50 at CFTR ΔF508 mutant came out at 41.7 nM; at CFTR G551D mutant, 2380 nM.
For the molecule `CC1(C)Cc2c(sc(NC(=O)c3ccccc3C(F)F)c2C(N)=O)C(C)(C)O1` [Compound 123, 2-[[2-(difluoromethyl)benzoyl]amino]-5,5,7,7-tetramethyl-4H-thieno[2,3-c]pyran-3-carboxamide], the EC50 at CFTR ΔF508 mutant stood at 87.9 nM; on CFTR G551D mutant it was 825 nM.
For `CC1(C)Cc2c(sc(NC(=O)C3(C)CC(F)(F)C3)c2C(N)=O)C(C)(C)O1` [Compound 124, 2-[(3,3-difluoro-1-methyl-cyclobutanecarbonyl)amino]-5,5,7,7-tetramethyl-4H-thieno[2,3-c]pyran-3-carboxamide], the EC50 on CFTR ΔF508 mutant came out at 40.6 nM; at CFTR G551D mutant, 685 nM.
The matching figures for `Cc1nc(C(=O)Nc2sc3c(c2C(N)=O)CC(C)(C)OC3(C)C)co1` [Compound 125, N-(3-carbamoyl-5,5,7,7-tetramethyl-4H-thieno[2,3-c]pyran-2-yl)-2-methyl-oxazole-4-carboxamide]: 194 nM and 3330 nM.

Source of the values: US9351955B2, “Compounds and pharmaceutical compositions thereof for the treatment of cystic fibrosis” (Galapagos NV, priority 2013, dated 2016).
